Reference: patent US20090099215A1, “Metabolic enhancing properties of norphenephrine and its salts” (priority 2007, published 2009)

Assay: oral administration of norphenephrine and its salts to users: metabolic, appetite, mental and addiction effects
Type: in vivo, human

For NCC(O)c1cccc(O)c1 (centres unmarked) [norphenephrine, Norphenephrine], the “time until the user experiences a vastly reduced appetite for food” value (after intake) was at most 30 min, the “interaction with caffeine (metabolic enhancement)” value (co-administration of caffeine) was “synergy between caffeine and norphenephrine is observed” and the “addictive / habituating nature” value (even at high dosages, compared with amphetamines) was “not addictive, or even habituating”. For the same compound, the “adipose tissue loss versus lean body mass” value (in vivo) was “specifically enhance the loss of adipose tissue while preserving lean body mass”, the “focus, acuity and psychological outlook” value (in vivo) was “sustained and noticeable effect” and the overall metabolic rate (in vivo) was “increase a user's overall metabolic rate”. The insulin sensitivity (muscle tissue apart from adipose tissue) was “specifically increase insulin sensitivity in muscle tissue” and the fat mass (no changes to the user's current diet and exercise regimen) was “noticeable and quantifiable decrease in fat mass”.
